# In patent US20050234073A1, “Methods of inhibiting inflammation” (priority 2003, published 2005):
# Assays:
# splenocytes = assay: Splenocyte / CD11c+ dendritic cell CD1d-restricted presentation to DN32 and 24.8 NKT cells (IL-2 ELISA); type: cell-based, mouse
# Experimental: FIG. 17B is a series of bar charts showing IL-2 production of splenocytes isolated from wild type mice in the presence or absence of exogenous antigens. Splenocytes were incubated for 24 hours with BMS212122 and washed. Exogenous antigens ovalbumin or α-galcer was added as indicated. Splenocytes were then co cultured with: CD4^+ cells from an OT-II transgenic mouse (left); DN32 NKT cells (center); or autoreactive 24.8 NKT cells (right). IL-2 concentrations were measured by ELISA of 40 hour culture supernatants. *, p<0.05.
# FIG. 17C is a bar chart showing IL-2 production of splenocytes or bone marrow derived dendritic cells co cultured with 24.8 NKT cells and incubated for 24 hours with BMS212122. Anti-CD1d mAb 1B1 or an isotype control was added as indicated. IL-2 concentrations were measured by ELISA of 40 hour culture supernatants. (nd=not detected) *, p<0.02.
# (§1) APCs were incubated with 100 ng/mL α-galcer (kindly provided by Dr. H. Ploegh) for 3 hours, washed three times in PBS and aliquoted into a 96 well plate at 10^6 cells/mL. DN32 cells were added at 1:1 E:T ratio unless otherwise indicated. CD4^+ cells were isolated from spleens of OT-II transgenic mice using positive selection on CD4 magnetic beads (Miltenyi Biotec) and incubated with APCs and 100 μg/mL ovalbumin. […] Mouse IL-2 production was assessed by ELISA (OptEIA, BD PharMingen) of 24 or 40 hour culture supernatants. […]
# BMDCs [1] = assay: Bone marrow derived dendritic cell presentation to 24.8 and DN32 NKT cells (IL-2 ELISA); type: cell-based, mouse; conditions: BMDCs cultured with inhibitor from day 6 to day 10
# Experimental: FIG. 17D is a line graph showing IL-2 production in bone marrow derived dendritic cells incubated for 4 days with BMS212122 (◯) or vehicle (●) were treated with α-galcer for 3 hours, washed and co cultured with DN32. IL-2 concentrations were measured by ELISA of 24 hour culture supernatants. *, p<0.01.
# as §1
# Bone marrow was extracted from the femurs of C57BL6 or MTPmx1cre mice, washed once in PBS and resuspended in R10 supplemented with culture supernatant from murine GM-CSF transfected cells for a final concentration of 200 U/mL GM-CSF. […] Differentiated cells were harvested by gentle pipetting, washed in PBS, and analyzed by flow cytometry for surface expression of CD11c and I-A^b. […] After 5 days cells were dislodged by gentle pipetting, analyzed by flow cytometry and assayed for antigen presentation. […]
# BMDCs [2] = assay: Flow cytometry of surface markers on BMDCs; type: cell-based, mouse
# Experimental: FIG. 17E is a flow cytometric analysis showing BMDCs cultured for 4 days with BMS212122 were stained with FITC-conjugated mAb 1B1. Dashed line represents the isotype control.
# FIG. 18 is flow cytometric analysis of in vitro differentiated bone marrow cells from wild type mice incubated with BMS212122 (MTPi) or vehicle Surface staining was performed using antibodies to MHC II (FITC-conjugated) and CD11c (PE-conjugated).
# Bone marrow was extracted from the femurs of C57BL6 or MTPmx1cre mice, washed once in PBS and resuspended in R10 supplemented with culture supernatant from murine GM-CSF transfected cells for a final concentration of 200 U/mL GM-CSF. BMDCs were then cultured in bacteriological plates for 12-14 days as described. Differentiated cells were harvested by gentle pipetting, washed in PBS, and analyzed by flow cytometry for surface expression of CD11c and I-A^b. Human monocytes were harvested from the peripheral blood of healthy volunteers by positive selection on CD14 magnetic beads (Miltenyi Biotec) and cultured in R10 medium at 10^6 cells per mL supplemented with 200 U/mL recombinant hIL-4 and 300 U/mL recombinant hGM-CSF (PeproTech, Rocky Hill, N.J.). After 5 days cells were dislodged by gentle pipetting, analyzed by flow cytometry and assayed for antigen presentation.
# Mouse cells were stained using the following antibodies: FITC-conjugated α-CD1d (1B1, PharMingen); PE-conjugated α-CD11c (HL3, PharMingen); FITC-conjugated α-1-A^d (AMS-32.1, PharMingen); PE-conjugated α-CD69 (H1.2F3, PharMingen); PE-conjugated α-B220 (RA3-6B2, PharMingen). Human cells were stained using: PE-conjugated α-CD83 (550634, PharMingen); FITC-conjugated α-HLA-A,B,C (557348, PharMingen); α-HLA DR,DP,DQ (32381A, PharMingen); α-CD1d (42.1 or 51.1.3); α-mouse IgG+IgM (AMI1708, Biosource, Camarillo, Calif.). Staining was performed in the presence of Via-Probe (PharMingen) and analyzed with a FACSort flow cytometer (Becton Dickinson).
# The role of MTP in CD1d presentation by primary mouse APCs was examined. Splenocytes were isolated from wild type mice and assayed for their ability to present an exogenous antigen, α-galcer, to DN32 NKT cells and their ability to stimulate the autoreactive NKT cell line 24.8. When splenocytes were incubated with BMS212122 for 24 hours prior to addition of NKT cells, their ability to present exogenous and endogenous CD1d-restricted antigens was reduced (FIG. 17B). […] Dendritic cells were then isolated from wild type splenocytes by positive selection on CD11c magnetic beads. […] Dendritic cells from mouse bone marrow (BMDC) were cultured with BMS212122 or vehicle control after 6 days of differentiation in the presence of GM-CSF. On day 10, BMDCs were collected and cocultured with NKT cells. […]
# MTP = MTP (Homo sapiens, UniProt P55157); conditions: cited from earlier work
# HepG2 cells = conditions: cited from earlier work
# MTP, sequence (P55157 19-894, species assumed): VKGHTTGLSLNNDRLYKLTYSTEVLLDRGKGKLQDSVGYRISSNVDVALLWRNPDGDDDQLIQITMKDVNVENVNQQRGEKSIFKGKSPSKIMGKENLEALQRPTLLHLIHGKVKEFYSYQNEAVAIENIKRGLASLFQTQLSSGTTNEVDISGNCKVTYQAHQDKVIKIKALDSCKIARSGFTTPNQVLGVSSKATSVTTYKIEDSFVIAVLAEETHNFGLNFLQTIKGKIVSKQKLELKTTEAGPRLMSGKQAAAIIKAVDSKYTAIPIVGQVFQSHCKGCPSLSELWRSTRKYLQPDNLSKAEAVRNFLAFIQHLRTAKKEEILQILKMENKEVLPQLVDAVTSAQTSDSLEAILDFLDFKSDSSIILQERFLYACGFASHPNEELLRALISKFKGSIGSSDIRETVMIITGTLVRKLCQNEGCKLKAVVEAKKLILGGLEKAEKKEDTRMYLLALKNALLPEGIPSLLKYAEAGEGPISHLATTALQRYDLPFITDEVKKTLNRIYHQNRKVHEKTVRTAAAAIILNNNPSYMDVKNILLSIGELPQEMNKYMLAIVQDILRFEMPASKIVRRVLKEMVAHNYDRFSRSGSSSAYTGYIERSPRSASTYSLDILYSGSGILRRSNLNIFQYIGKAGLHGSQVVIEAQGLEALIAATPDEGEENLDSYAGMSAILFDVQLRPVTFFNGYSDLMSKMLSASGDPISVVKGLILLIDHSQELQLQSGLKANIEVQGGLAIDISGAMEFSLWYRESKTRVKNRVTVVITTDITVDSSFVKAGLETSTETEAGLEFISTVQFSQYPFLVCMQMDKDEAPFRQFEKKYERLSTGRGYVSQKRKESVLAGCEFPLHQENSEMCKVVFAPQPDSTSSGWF
# MTP, sequence (P07237 18-508 partner, species assumed): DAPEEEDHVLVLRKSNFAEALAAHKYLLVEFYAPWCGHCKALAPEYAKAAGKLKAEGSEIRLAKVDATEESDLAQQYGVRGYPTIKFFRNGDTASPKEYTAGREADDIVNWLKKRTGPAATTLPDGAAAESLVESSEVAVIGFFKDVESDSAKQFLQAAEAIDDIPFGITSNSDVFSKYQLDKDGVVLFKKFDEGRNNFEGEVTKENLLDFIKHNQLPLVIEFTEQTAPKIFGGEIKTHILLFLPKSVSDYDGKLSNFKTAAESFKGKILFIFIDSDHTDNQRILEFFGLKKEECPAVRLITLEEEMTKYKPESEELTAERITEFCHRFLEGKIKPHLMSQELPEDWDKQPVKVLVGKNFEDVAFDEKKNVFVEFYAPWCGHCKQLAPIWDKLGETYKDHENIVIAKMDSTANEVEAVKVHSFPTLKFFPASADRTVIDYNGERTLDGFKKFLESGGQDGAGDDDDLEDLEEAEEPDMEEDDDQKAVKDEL
compound,measurement,setting,value
"Cc1ccc2c(nc(C)n2CCCCC2(C(=O)NCC(F)(F)F)c3ccccc3-c3ccccc32)c1NC(=O)c1ccccc1-c1ccc(C(F)(F)F)cc1 [BMS212122, 9-[4-[2,5-Dimethyl-4-[[[4′-(trifluoromethyl)[1,1′-biphenyl]-2-yl]carbonyl]amino]-1H-benzimidazol-1-yl]butyl]-N-(2,2,2-trifluoroethyl)-9H-fluorene-9-carboxamide]",effect on presentation of an endogenous ligand to 24.8 NKT cells,splenocytes; CD11c-positive dendritic cell population from splenocytes,highly pronounced
same,ability to present exogenous and endogenous CD1d-restricted antigens,splenocytes; splenocytes incubated 24 hours with inhibitor prior to addition of NKT cells,reduced
same,presentation of α-galcer to DN32 cells,BMDCs [1],significant effect
same,CD11c surface staining,BMDCs [2]; BMDCs,unaffected
same,MHC class II surface staining,BMDCs [2]; BMDCs,unaffected
same,"CD1d expression on BMDCs, % of vehicle controls",BMDCs [2]; after 4 days of treatment,66%
same,"CD1d expression on BMDCs, % of level in vehicle treated controls",BMDCs [2]; one day after addition,86%
same,"transfer of triglycerides, phospholipids, and cholesterol esters in vitro",MTP,blocks transfer
same,secretion of apoB from HepG2 cells,HepG2 cells,prevents secretion
